According to ChEMBL document CHEMBL1201862, “PubChem BioAssay data set” (2004):
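Cultured in 96-well plates, cells were exposed to test compound for 48 hours across five concentrations. GI50: concentration for 50% inhibition of growth.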 The source made the active and inactive calls. Rule as the data show it: active = GI50 up to about 1.1 µM and inactive = higher.

Legend:
Test in all cases: NCI tumour cell line growth inhibition, 48 h
HCT-116 = test system: HCT-116
SK-MEL-5 = test system: SK-MEL-5
SNB-75 = test system: SNB-75
SN12C = test system: SN12C
BT-549 = test system: BT-549
A498 = test system: A498
LOX IMVI = test system: LOX IMVI
UACC-257 = test system: UACC-257
RPMI-8226 = test system: RPMI-8226
NCI-H460 = test system: NCI-H460
SF-295 = test system: SF-295
Malme-3M = test system: Malme-3M
NCI/ADR-RES = test system: NCI/ADR-RES
T47D = test system: T47D
HT-29 = test system: HT-29
MDA-MB-435 = test system: MDA-MB-435
OVCAR-8 = test system: OVCAR-8
DU-145 = test system: DU-145
IGROV-1 = test system: IGROV-1
ACHN = test system: ACHN

Structure (SMILES)	GI50 (HCT-116)	GI50 (SK-MEL-5)	GI50 (SNB-75)	GI50 (SN12C)	GI50 (BT-549)	GI50 (A498)	GI50 (LOX IMVI)	GI50 (UACC-257)	GI50 (RPMI-8226)	GI50 (NCI-H460)	GI50 (SF-295)	GI50 (Malme-3M)	GI50 (NCI/ADR-RES)	GI50 (T47D)	GI50 (HT-29)	GI50 (MDA-MB-435)	GI50 (OVCAR-8)	GI50 (DU-145)	GI50 (IGROV-1)	GI50 (ACHN)
CCOC(=O)c1c(-c2ccccc2)oc(=O)c(Cc2cccc3cccnc23)c1-c1ccccc1	> 10 µM (inactive)	> 10 µM (inactive)	> 10 µM (inactive)	> 10 µM (inactive)	> 10 µM (inactive)	> 10 µM (inactive)	> 10 µM (inactive)	> 10 µM (inactive)	> 10 µM (inactive)	> 10 µM (inactive)	> 10 µM (inactive)	> 10 µM (inactive)	> 10 µM (inactive)	> 10 µM (inactive)	> 10 µM (inactive)	> 10 µM (inactive)	> 10 µM (inactive)	> 10 µM (inactive)	> 10 µM (inactive)	> 10 µM (inactive)
COC(=O)C1(Cc2ccccc2C)Cc2ccc(C)cc2C1=O (stereo not drawn)	27.2 µM (inactive)	16.9 µM (inactive)	58.3 µM (inactive)	21.6 µM (inactive)	49.1 µM (inactive)	31.3 µM (inactive)	19.7 µM (inactive)	29.4 µM (inactive)	17 µM (inactive)	30.8 µM (inactive)	34.4 µM (inactive)	23.2 µM (inactive)	16.7 µM (inactive)	22.8 µM (inactive)	16.7 µM (inactive)	32.3 µM (inactive)	47.9 µM (inactive)	56.8 µM (inactive)	70.5 µM (inactive)	34.9 µM (inactive)
C=C1C(=O)O[C@@H]2C[C@@H](C)[C@@H]3[C@@H](OC4OC(COC(C)=O)C(O)C(O)C4O)CC(=O)[C@@]3(C)C[C@H]12 (stereo partly drawn)	0.659 µM (active)	1.74 µM (inactive)	7.31 µM (inactive)	1.54 µM (inactive)	1.34 µM (inactive)	15.5 µM (inactive)	0.63 µM (active)	1.68 µM (inactive)	1.39 µM (inactive)	14.3 µM (inactive)	17.3 µM (inactive)	0.283 µM (active)	0.855 µM (active)	2.84 µM (inactive)	1.22 µM (inactive)	2.26 µM (inactive)	1.36 µM (inactive)	8.38 µM (inactive)	2.17 µM (inactive)	0.508 µM (active)
Cc1c2ncccc2c(C)c2c1[nH]c1ccc(O)cc12	4.59 µM (inactive)	7.24 µM (inactive)	4.07 µM (inactive)	2.24 µM (inactive)	13.7 µM (inactive)	13.3 µM (inactive)	1.71 µM (inactive)	11.5 µM (inactive)	2 µM (inactive)	1.31 µM (inactive)	2.48 µM (inactive)	8.87 µM (inactive)	5.27 µM (inactive)	8.59 µM (inactive)	6.87 µM (inactive)	7.64 µM (inactive)	4.35 µM (inactive)	7.23 µM (inactive)	3.89 µM (inactive)	2.02 µM (inactive)
CC(OP(=O)(O)O)C(N)C(=O)O (stereo not drawn)	> 100 µM (inactive)	> 100 µM (inactive)	> 100 µM (inactive)	> 100 µM (inactive)	> 100 µM (inactive)	> 100 µM (inactive)	> 100 µM (inactive)	> 100 µM (inactive)	> 100 µM (inactive)	> 100 µM (inactive)	> 100 µM (inactive)	> 100 µM (inactive)	> 100 µM (inactive)	> 100 µM (inactive)	> 100 µM (inactive)	> 100 µM (inactive)	> 100 µM (inactive)	> 100 µM (inactive)	> 100 µM (inactive)	> 100 µM (inactive)
COc1cccc2nc3c(C(=O)NCCN(C)C)cccc3cc12	1.34 µM (inactive)	1.41 µM (inactive)	4.88 µM (inactive)	1.16 µM (inactive)	2.57 µM (inactive)	0.307 µM (active)	0.771 µM (active)	1.92 µM (inactive)	1.21 µM (inactive)	0.195 µM (active)	2.12 µM (inactive)	1.56 µM (inactive)	2.71 µM (inactive)	3.65 µM (inactive)	1.21 µM (inactive)	2.69 µM (inactive)	1.26 µM (inactive)	5.74 µM (inactive)	1.88 µM (inactive)	0.655 µM (active)
Oc1cc(-c2cccc(OCc3ccccc3)c2)nc2cc3c(cc12)OCO3	0.346 µM (active)	0.247 µM (active)	1.05 µM (active)	0.378 µM (active)	0.469 µM (active)	0.256 µM (active)	0.269 µM (active)	14.7 µM (inactive)	0.303 µM (active)	0.292 µM (active)	0.63 µM (active)	0.621 µM (active)	0.226 µM (active)	> 52 µM (inactive)	2.01 µM (inactive)	0.0902 µM (active)	0.339 µM (active)	0.644 µM (active)	1.09 µM (active)	3.71 µM (inactive)
C=CCc1cccc2cc(C(=O)Nc3ccccc3)c(=N)oc12	18.1 µM (inactive)	21.7 µM (inactive)	52.4 µM (inactive)	55.8 µM (inactive)	> 100 µM (inactive)	23.2 µM (inactive)	> 100 µM (inactive)	> 100 µM (inactive)	> 100 µM (inactive)	63.2 µM (inactive)	–	7.14 µM (inactive)	> 100 µM (inactive)	11.9 µM (inactive)	> 100 µM (inactive)	27.9 µM (inactive)	> 100 µM (inactive)	> 100 µM (inactive)	33.2 µM (inactive)	10.1 µM (inactive)
CSc1c(C#N)c(O)n(-c2ccc(Cl)cc2)c(=O)c1C#N	63.5 µM (inactive)	> 100 µM (inactive)	> 100 µM (inactive)	> 100 µM (inactive)	> 100 µM (inactive)	45.2 µM (inactive)	14 µM (inactive)	> 100 µM (inactive)	39.5 µM (inactive)	> 100 µM (inactive)	–	> 100 µM (inactive)	77.3 µM (inactive)	64.9 µM (inactive)	> 100 µM (inactive)	> 100 µM (inactive)	> 100 µM (inactive)	> 100 µM (inactive)	> 100 µM (inactive)	–
C=CCN1C(=O)/C(=C/c2cccs2)N=C1SC/C=C/C	26.3 µM (inactive)	19.1 µM (inactive)	17.3 µM (inactive)	26.3 µM (inactive)	39.1 µM (inactive)	27 µM (inactive)	36.1 µM (inactive)	40.3 µM (inactive)	16.9 µM (inactive)	38.3 µM (inactive)	40.4 µM (inactive)	34 µM (inactive)	39.1 µM (inactive)	21 µM (inactive)	34.6 µM (inactive)	34.5 µM (inactive)	37.6 µM (inactive)	63.1 µM (inactive)	63.8 µM (inactive)	35.5 µM (inactive)
CC(=O)NC1C(OCc2ccccc2)OC(CO)C(O)C1OC(C)C(=O)NC(C(=O)NC(CCC(=O)NCCCC(=O)Nc1ccc2c(c1)CN1C(=O)c3ccccc3C1=N2)C(N)=O)C(C)C (stereo not drawn)	> 100 µM (inactive)	> 100 µM (inactive)	> 100 µM (inactive)	> 100 µM (inactive)	> 100 µM (inactive)	> 100 µM (inactive)	> 100 µM (inactive)	> 100 µM (inactive)	> 100 µM (inactive)	> 100 µM (inactive)	> 100 µM (inactive)	> 100 µM (inactive)	> 100 µM (inactive)	> 100 µM (inactive)	> 100 µM (inactive)	> 100 µM (inactive)	–	> 100 µM (inactive)	> 100 µM (inactive)	> 100 µM (inactive)
C=CCc1cc(-c2cc(CC=C)c(O)c(CN(CCCl)CCCl)c2)cc(CN(CCCl)CCCl)c1O	11.1 µM (inactive)	16.8 µM (inactive)	16.3 µM (inactive)	9.68 µM (inactive)	14.3 µM (inactive)	20.7 µM (inactive)	10.3 µM (inactive)	16 µM (inactive)	12.2 µM (inactive)	3.79 µM (inactive)	13 µM (inactive)	18.7 µM (inactive)	18.9 µM (inactive)	8.55 µM (inactive)	13.7 µM (inactive)	15.4 µM (inactive)	12.1 µM (inactive)	15.7 µM (inactive)	16.2 µM (inactive)	7.69 µM (inactive)
O=C(Nc1ccccc1)c1cc(S(=O)(=O)Nc2n[nH]c(=O)n2-c2ccccc2)c(S)cc1Cl	> 100 µM (inactive)	> 100 µM (inactive)	> 100 µM (inactive)	> 100 µM (inactive)	> 100 µM (inactive)	> 100 µM (inactive)	> 100 µM (inactive)	> 100 µM (inactive)	> 100 µM (inactive)	> 100 µM (inactive)	–	> 100 µM (inactive)	> 100 µM (inactive)	> 100 µM (inactive)	> 100 µM (inactive)	> 100 µM (inactive)	> 100 µM (inactive)	> 100 µM (inactive)	> 100 µM (inactive)	–
O=C(N/N=C(COc1ccccc1)\N=C\c1cccnc1)c1ccncc1	> 100 µM (inactive)	–	36.8 µM (inactive)	> 100 µM (inactive)	> 100 µM (inactive)	> 100 µM (inactive)	> 100 µM (inactive)	> 100 µM (inactive)	> 100 µM (inactive)	> 100 µM (inactive)	> 100 µM (inactive)	> 100 µM (inactive)	> 100 µM (inactive)	> 100 µM (inactive)	> 100 µM (inactive)	> 100 µM (inactive)	> 100 µM (inactive)	> 100 µM (inactive)	> 100 µM (inactive)	> 100 µM (inactive)
